Legend:
[1] = target: Serine/threonine-protein kinase Nek5 (Homo sapiens) (UniProt Q6P3R8); conditions: Compound concentration 1000.0 nM
[2] = target: Cyclin-dependent kinase 16 (Homo sapiens) (UniProt Q00536); conditions: Compound concentration 1000.0 nM
[3] = tested on: Receptor-type tyrosine-protein kinase FLT3 (Homo sapiens), P36888 [D835Y]; conditions: Compound concentration 1000.0 nM
[4] = target: Serine/threonine-protein kinase TAO1 (Homo sapiens) (UniProt Q7L7X3); conditions: Compound concentration 1000.0 nM
Serine/threonine-protein kinase TAO1 (Homo sapiens), sequence (Q7L7X3 whole entry): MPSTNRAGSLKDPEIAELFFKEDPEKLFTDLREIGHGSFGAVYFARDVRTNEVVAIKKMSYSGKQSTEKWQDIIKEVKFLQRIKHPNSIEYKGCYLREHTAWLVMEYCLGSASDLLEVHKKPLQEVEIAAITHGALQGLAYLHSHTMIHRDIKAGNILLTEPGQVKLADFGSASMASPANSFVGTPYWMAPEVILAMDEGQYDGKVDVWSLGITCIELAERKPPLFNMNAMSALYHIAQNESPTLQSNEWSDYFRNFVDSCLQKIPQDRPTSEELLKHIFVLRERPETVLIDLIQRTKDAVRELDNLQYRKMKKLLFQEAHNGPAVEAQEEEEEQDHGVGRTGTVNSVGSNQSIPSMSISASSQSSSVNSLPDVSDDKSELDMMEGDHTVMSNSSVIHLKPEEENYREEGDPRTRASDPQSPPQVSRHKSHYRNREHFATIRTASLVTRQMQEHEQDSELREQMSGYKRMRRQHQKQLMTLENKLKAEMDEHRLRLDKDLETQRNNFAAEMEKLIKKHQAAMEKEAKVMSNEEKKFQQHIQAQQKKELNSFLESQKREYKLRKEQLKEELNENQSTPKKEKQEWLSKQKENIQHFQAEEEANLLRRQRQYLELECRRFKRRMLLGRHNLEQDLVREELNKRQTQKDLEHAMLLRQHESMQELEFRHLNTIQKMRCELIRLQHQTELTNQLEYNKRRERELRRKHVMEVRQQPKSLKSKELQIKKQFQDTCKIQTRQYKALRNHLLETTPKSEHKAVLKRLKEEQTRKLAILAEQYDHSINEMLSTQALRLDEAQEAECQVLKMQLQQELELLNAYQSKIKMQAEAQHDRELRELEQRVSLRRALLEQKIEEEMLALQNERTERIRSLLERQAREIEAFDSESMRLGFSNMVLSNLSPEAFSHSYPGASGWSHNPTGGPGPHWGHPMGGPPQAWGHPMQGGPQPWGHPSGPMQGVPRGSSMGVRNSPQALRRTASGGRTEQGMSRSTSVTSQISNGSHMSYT

[5] = target: Vascular endothelial growth factor receptor 3 (Homo sapiens) (UniProt P35916); conditions: Compound concentration 1000.0 nM
[6] = target: Ribosomal protein S6 kinase alpha-2 (Homo sapiens) (UniProt Q15349); conditions: Compound concentration 1000.0 nM
[7] = target: 5-hydroxytryptamine receptor 2C (Homo sapiens) (UniProt P28335); conditions: Compound concentration 10.0 uM
5-hydroxytryptamine receptor 2C (Homo sapiens), sequence (P28335 whole entry): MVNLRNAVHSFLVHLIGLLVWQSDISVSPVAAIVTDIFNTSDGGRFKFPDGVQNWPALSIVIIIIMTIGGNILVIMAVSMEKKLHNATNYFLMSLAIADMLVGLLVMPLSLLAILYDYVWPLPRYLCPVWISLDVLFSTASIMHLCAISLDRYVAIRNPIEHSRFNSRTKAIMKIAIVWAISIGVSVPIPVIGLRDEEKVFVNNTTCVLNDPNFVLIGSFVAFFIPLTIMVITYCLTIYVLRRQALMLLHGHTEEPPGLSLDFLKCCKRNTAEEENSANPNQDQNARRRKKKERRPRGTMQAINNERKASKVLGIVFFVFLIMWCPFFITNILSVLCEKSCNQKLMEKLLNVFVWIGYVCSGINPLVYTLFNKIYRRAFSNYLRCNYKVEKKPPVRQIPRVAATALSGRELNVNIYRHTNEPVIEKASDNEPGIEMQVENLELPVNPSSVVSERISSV

[8] = target: Tyrosine-protein kinase Blk (Homo sapiens) (UniProt P51451); conditions: Compound concentration 1000.0 nM
Tyrosine-protein kinase Blk (Homo sapiens), sequence (P51451 2-505 limits assumed): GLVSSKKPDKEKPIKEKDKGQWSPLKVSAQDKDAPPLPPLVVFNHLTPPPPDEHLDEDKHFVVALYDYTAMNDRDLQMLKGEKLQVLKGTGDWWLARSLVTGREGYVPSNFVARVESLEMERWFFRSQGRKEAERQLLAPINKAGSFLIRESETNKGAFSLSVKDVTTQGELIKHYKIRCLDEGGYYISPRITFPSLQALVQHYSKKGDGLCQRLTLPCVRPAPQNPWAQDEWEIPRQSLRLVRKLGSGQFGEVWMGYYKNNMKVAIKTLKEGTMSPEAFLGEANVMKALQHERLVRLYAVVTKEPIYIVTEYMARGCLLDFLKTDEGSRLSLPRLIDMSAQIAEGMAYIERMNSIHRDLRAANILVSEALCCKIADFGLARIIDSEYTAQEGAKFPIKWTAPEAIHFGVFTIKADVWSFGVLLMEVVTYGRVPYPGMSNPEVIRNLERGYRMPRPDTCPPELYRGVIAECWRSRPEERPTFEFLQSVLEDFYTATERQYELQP

[9] = target: Receptor-interacting serine/threonine-protein kinase 1 (Homo sapiens) (UniProt Q13546); conditions: Compound concentration 1000.0 nM
[10] = target: Ribosomal protein S6 kinase alpha-4 (Homo sapiens) (UniProt O75676); conditions: Compound concentration 1000.0 nM
[11] = target: Homeodomain-interacting protein kinase 4 (Homo sapiens) (UniProt Q8NE63); conditions: Compound concentration 1000.0 nM
[12] = target: Serine/threonine-protein kinase Nek7 (Homo sapiens) (UniProt Q8TDX7); conditions: Compound concentration 1000.0 nM
[13] = target: Homeodomain-interacting protein kinase 3 (Homo sapiens) (UniProt Q9H422); conditions: Compound concentration 1000.0 nM
[14] = target: Protein kinase C delta type (Homo sapiens) (UniProt Q05655); conditions: Compound concentration 1000.0 nM
[15] = target: Epithelial discoidin domain-containing receptor 1 (Homo sapiens) (UniProt Q08345); conditions: Compound concentration 1000.0 nM
[16] = target: Non-receptor tyrosine-protein kinase TYK2 (Homo sapiens) (UniProt P29597); conditions: Compound concentration 1000.0 nM
[17] = target: RAF proto-oncogene serine/threonine-protein kinase (Homo sapiens) (UniProt P04049); conditions: Compound concentration 1000.0 nM
[18] = target: Tyrosine-protein kinase ZAP-70 (Homo sapiens) (UniProt P43403); conditions: Compound concentration 1000.0 nM
[19] = target: Serine/threonine-protein kinase PAK 5 (Homo sapiens) (UniProt Q9P286); conditions: Compound concentration 1000.0 nM
[20] = target: Serine/threonine-protein kinase Nek6 (Homo sapiens) (UniProt Q9HC98); conditions: Compound concentration 1000.0 nM
[21] = target: Serine/threonine-protein kinase tousled-like 2 (Homo sapiens) (UniProt Q86UE8); conditions: Compound concentration 1000.0 nM
Serine/threonine-protein kinase tousled-like 2 (Homo sapiens), sequence (Q86UE8 whole entry, looked up): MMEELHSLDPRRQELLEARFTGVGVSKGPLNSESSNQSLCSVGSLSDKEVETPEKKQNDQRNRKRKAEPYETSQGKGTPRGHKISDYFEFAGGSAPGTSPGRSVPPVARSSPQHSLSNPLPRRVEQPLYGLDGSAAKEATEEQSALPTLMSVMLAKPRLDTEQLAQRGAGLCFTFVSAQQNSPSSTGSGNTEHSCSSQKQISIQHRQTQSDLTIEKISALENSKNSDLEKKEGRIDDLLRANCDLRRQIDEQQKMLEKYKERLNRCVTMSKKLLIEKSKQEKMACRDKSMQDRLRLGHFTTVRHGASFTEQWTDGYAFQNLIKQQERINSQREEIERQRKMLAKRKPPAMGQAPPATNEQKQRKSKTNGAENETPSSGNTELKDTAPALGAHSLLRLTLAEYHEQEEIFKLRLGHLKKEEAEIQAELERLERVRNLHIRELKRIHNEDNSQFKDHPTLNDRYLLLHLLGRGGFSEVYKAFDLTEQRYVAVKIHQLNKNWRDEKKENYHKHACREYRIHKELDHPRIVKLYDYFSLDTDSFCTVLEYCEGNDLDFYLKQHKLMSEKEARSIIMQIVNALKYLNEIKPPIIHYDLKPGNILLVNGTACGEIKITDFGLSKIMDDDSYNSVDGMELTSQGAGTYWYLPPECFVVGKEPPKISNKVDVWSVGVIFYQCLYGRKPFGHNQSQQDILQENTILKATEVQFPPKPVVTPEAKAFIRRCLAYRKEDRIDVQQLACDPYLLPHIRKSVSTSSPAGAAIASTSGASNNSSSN

[22] = target: Serine/threonine-protein kinase 35 (Homo sapiens) (UniProt Q8TDR2); conditions: Compound concentration 1000.0 nM
[23] = target: Ribosomal protein S6 kinase alpha-5 (Homo sapiens) (UniProt O75582); conditions: Compound concentration 1000.0 nM
[24] = target: Ephrin type-B receptor 1 (Homo sapiens) (UniProt P54762); conditions: Compound concentration 1000.0 nM
[25] = target: Dual specificity tyrosine-phosphorylation-regulated kinase 2 (Homo sapiens) (UniProt Q92630); conditions: Compound concentration 1000.0 nM
[26] = target: Tyrosine-protein kinase ABL1 (Homo sapiens) (UniProt P00519); conditions: Compound concentration 1000.0 nM
[27] = target: Serine/threonine-protein kinase PLK4 (Homo sapiens) (UniProt O00444); conditions: Compound concentration 1000.0 nM
[28] = target: Myotonin-protein kinase (Homo sapiens) (UniProt Q09013); conditions: Compound concentration 1000.0 nM
[29] = target: Ribosomal protein S6 kinase alpha-1 (Homo sapiens) (UniProt Q15418); conditions: Compound concentration 1000.0 nM
[30] = target: Calcium/calmodulin-dependent protein kinase type 1 (Homo sapiens) (UniProt Q14012); conditions: Compound concentration 1000.0 nM
Calcium/calmodulin-dependent protein kinase type 1 (Homo sapiens), sequence (Q14012 whole entry, looked up): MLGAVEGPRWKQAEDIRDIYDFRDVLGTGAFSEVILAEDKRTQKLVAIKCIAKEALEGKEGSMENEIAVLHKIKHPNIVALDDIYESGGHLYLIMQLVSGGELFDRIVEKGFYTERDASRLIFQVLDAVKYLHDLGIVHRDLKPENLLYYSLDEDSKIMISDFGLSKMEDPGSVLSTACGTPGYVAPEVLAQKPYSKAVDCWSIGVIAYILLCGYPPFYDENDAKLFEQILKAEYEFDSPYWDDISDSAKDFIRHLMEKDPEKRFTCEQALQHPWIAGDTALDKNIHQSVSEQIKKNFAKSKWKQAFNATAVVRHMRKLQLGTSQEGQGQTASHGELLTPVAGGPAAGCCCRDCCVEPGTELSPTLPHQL

[31] = target: Beta-adrenergic receptor kinase 1 (Homo sapiens) (UniProt P25098); conditions: Compound concentration 1000.0 nM
[32] = target: Sodium-dependent serotonin transporter (Homo sapiens) (UniProt P31645); conditions: Compound concentration 10.0 uM
[33] = target: Atypical kinase COQ8B, mitochondrial (Homo sapiens) (UniProt Q96D53); conditions: Compound concentration 1000.0 nM
Atypical kinase COQ8B, mitochondrial (Homo sapiens), sequence (Q96D53 whole entry): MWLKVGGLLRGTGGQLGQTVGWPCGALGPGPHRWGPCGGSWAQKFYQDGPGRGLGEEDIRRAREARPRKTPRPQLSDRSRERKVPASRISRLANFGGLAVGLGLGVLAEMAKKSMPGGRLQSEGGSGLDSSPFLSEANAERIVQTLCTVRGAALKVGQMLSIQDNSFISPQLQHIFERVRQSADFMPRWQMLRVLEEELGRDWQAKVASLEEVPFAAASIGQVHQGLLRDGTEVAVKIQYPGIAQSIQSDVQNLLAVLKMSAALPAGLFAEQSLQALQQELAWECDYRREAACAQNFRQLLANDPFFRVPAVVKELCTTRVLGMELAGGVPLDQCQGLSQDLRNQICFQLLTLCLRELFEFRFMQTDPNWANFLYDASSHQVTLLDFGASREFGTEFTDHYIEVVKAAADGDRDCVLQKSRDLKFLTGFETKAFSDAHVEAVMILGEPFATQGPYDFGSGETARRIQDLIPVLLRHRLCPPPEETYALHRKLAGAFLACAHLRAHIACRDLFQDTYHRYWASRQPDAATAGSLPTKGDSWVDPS

[34] = target: Serine/threonine-protein kinase TAO3 (Homo sapiens) (UniProt Q9H2K8); conditions: Compound concentration 1000.0 nM
[35] = target: Dual specificity tyrosine-phosphorylation-regulated kinase 1B (Homo sapiens) (UniProt Q9Y463); conditions: Compound concentration 1000.0 nM
[36] = target: Focal adhesion kinase 1 (Homo sapiens) (UniProt Q05397); conditions: Compound concentration 1000.0 nM
[37] = target: Atypical kinase COQ8A, mitochondrial (Homo sapiens) (UniProt Q8NI60); conditions: Compound concentration 1000.0 nM
Atypical kinase COQ8A, mitochondrial (Homo sapiens), sequence (Q8NI60 163-647 limits assumed): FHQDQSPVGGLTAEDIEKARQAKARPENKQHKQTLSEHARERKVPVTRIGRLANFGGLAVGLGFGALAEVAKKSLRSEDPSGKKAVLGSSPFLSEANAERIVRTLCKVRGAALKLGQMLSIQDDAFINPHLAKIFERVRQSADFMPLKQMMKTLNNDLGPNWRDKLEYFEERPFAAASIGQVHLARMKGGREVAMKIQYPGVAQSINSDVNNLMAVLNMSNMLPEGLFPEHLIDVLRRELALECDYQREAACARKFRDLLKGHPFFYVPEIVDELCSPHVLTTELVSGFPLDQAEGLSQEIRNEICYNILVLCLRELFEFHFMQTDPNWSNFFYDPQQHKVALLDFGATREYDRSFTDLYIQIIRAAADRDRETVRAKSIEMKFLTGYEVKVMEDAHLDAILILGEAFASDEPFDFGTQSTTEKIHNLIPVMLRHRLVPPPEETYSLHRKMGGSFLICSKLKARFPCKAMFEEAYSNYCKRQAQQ

[38] = target: Serine/threonine-protein kinase Chk1 (Homo sapiens) (UniProt O14757); conditions: Compound concentration 1000.0 nM
Serine/threonine-protein kinase Chk1 (Homo sapiens), sequence (O14757 whole entry): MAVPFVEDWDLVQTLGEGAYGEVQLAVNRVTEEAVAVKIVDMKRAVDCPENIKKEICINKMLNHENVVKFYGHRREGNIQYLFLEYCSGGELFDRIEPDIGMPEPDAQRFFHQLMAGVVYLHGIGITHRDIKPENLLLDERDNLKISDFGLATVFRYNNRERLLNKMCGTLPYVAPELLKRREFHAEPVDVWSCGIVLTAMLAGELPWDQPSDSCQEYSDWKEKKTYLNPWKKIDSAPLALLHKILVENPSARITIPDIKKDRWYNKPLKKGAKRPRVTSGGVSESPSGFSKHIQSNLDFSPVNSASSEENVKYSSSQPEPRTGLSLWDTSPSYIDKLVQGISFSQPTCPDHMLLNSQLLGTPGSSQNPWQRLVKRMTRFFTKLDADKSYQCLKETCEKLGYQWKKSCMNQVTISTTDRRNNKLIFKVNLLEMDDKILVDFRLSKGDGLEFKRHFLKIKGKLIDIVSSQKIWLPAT

[39] = target: Mu-type opioid receptor (Homo sapiens) (UniProt P35372); conditions: Compound concentration 10.0 uM
Mu-type opioid receptor (Homo sapiens), sequence (P35372 whole entry): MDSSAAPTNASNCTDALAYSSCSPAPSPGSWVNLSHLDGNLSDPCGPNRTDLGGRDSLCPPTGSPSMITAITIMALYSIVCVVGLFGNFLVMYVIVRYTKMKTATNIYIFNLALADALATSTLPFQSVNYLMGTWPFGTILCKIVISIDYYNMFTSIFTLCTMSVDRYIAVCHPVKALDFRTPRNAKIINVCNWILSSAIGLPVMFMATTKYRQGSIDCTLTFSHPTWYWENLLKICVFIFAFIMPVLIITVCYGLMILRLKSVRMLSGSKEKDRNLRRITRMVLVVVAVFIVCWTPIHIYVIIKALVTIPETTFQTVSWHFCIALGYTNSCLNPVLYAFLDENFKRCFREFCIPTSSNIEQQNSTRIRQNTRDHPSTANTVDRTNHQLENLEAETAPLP

[40] = target: Tyrosine-protein kinase Mer (Homo sapiens) (UniProt Q12866); conditions: Compound concentration 1000.0 nM
[41] = target: Tyrosine-protein kinase JAK2 (Homo sapiens) (UniProt O60674); conditions: Compound concentration 1000.0 nM
[42] = tested on: Receptor-type tyrosine-protein kinase FLT3 (Homo sapiens), P36888 [UNDEFINED MUTATION]; conditions: Compound concentration 1000.0 nM
[43] = target: Cyclin-dependent kinase 8 (Homo sapiens) (UniProt P49336); conditions: Compound concentration 1000.0 nM
[44] = target: Macrophage colony-stimulating factor 1 receptor (Homo sapiens) (UniProt P07333); conditions: Compound concentration 1000.0 nM
[45] = target: Casein kinase I isoform alpha-like (Homo sapiens) (UniProt Q8N752); conditions: Compound concentration 1000.0 nM

CC(=O)N1CCC(c2ccc(C(=O)NC3=NCCN3)cc2C(F)(F)F)CC1 [BI 0054]
active: residual activity [35] 37% | residual activity [36] 17%
inactive: residual activity [1] 100% | residual activity [2] 84% | residual activity [3] 98% | residual activity [4] 100% | residual activity [5] 98% | residual activity [6] 83% | inhibition [7] -2.86% | residual activity [8] 94% | residual activity [9] 100% | residual activity [10] 81% | residual activity [11] 100% | residual activity [12] 100% | residual activity [13] 72% | residual activity [14] 100% | residual activity [15] 100% | residual activity [16] 100% | residual activity [17] 100% | residual activity [18] 97% | residual activity [19] 87% | residual activity [20] 100% | residual activity [21] 100% | residual activity [22] 100% | residual activity [23] 100% | residual activity [24] 100% | residual activity [25] 93% | residual activity [26] 83% | residual activity [27] 100% | residual activity [28] 100% | residual activity [29] 100% | residual activity [30] 100% | residual activity [31] 77% | inhibition [32] 11.8% | residual activity [33] 97% | residual activity [34] 87% | residual activity [37] 95% | residual activity [38] 100% | inhibition [39] -2.53% | residual activity [40] 100% | residual activity [41] 100% | residual activity [42] 89% | residual activity [43] 100% | residual activity [44] 94% | residual activity [45] 100%

CC(=O)N1CCC(c2ccc(C(=O)NC(=N)N)cc2C(F)(F)F)CC1 [BI 9627]
active: residual activity [35] 45%
inactive: residual activity [1] 100% | residual activity [2] 91% | residual activity [3] 100% | residual activity [4] 100% | residual activity [5] 89% | residual activity [6] 97% | inhibition [7] 2.59% | residual activity [8] 100% | residual activity [9] 100% | residual activity [10] 100% | residual activity [11] 100% | residual activity [12] 100% | residual activity [13] 82% | residual activity [14] 100% | residual activity [15] 83% | residual activity [16] 100% | residual activity [17] 100% | residual activity [18] 100% | residual activity [19] 100% | residual activity [20] 100% | residual activity [21] 100% | residual activity [22] 100% | residual activity [23] 100% | residual activity [24] 100% | residual activity [25] 89% | residual activity [26] 89% | residual activity [27] 100% | residual activity [28] 100% | residual activity [29] 100% | residual activity [30] 100% | residual activity [31] 96% | inhibition [32] 21.4% | residual activity [33] 100% | residual activity [34] 86% | residual activity [36] 100% | residual activity [37] 96% | residual activity [38] 95% | inhibition [39] 8.98% | residual activity [40] 81% | residual activity [41] 100% | residual activity [42] 100% | residual activity [43] 100% | residual activity [44] 85% | residual activity [45] 100%

— ChEMBL document CHEMBL4507279, “Data for DCP probe BI-9627” (2021)
